The subject of data set [1] is RAW264.7. In words: Cytotoxicity against LPS-induced mouse RAW264.7 cells assessed as reduction in cell viability at 20 uM incubated for 24 hrs by MTT assay. The format is toxicity, cell-based. The conditions noted are these: raw264.7, 24 h. (In general: Formazan colour is commonly taken as a measure of viable cells.)
The test system of data set [2] is RAW264.7. The data set can be described thus: Antiinflammatory activity in LPS-induced mouse RAW264.7 cells assessed as inhibition of NO production at 20 uM measured after 24 hrs by Griess reagent based assay. The format is functional, cell-based.
For data set [3], the system named is RAW264.7. The data set can be described thus: Antiinflammatory activity in LPS-induced mouse RAW264.7 cells assessed as reduction in iNOS protein expression at 20 uM measured after 24 hrs by Western blot analysis. The format is functional, cell-based.
For data set [4], the system named is RAW264.7. The data set can be described thus: Antiinflammatory activity in LPS-induced mouse RAW264.7 cells assessed as inhibition of NO production measured after 24 hrs by Griess reagent based analysis. The format is functional, cell-based. The conditions noted are these: dose 0.1-20 µM. (In general: Nitrite, measured by Griess reagent, commonly stands in for NO production.)

Data set [5] deals with RAW264.7. In words: Antiinflammatory activity in LPS-induced mouse RAW264.7 cells assessed as inhibition of NLRP3 protein expression at 20 uM measured after 24 hrs by Western blot analysis. It is filed as functional, cell-based.

SMILES strings stand for the structures. Active and inactive are the calls of the source. The rule behind the calls is not given here.

Regarding `CC[C@H](C)[C@H]1NC(=O)CNC(=O)[C@H](Cc2ccccc2)NC(=O)c2cccc(O)c2NC(=O)[C@H]([C@H](C)c2ccc(OC)cc2)NC1=O`, the Activity result with RAW264.7 [1] is recorded as “Non-Toxic”. In addition, the result in the data set on RAW264.7 [2] was Active.

For the compound `CC[C@@H](C)[C@H]1NC(=O)CNC(=O)[C@H](CC(C)C)NC(=O)c2cccc(O)c2NC(=O)[C@H]([C@H](C)c2ccc(OC)cc2)NC1=O`, the Activity result in the data set with RAW264.7 [1] is given as “Non-Toxic”. In addition, the result with RAW264.7 [2] was Active.

Turning to `COc1ccc([C@@H](C)[C@@H]2NC(=O)[C@@H](CC(C)C)NC(=O)CNC(=O)[C@H](CCC(C)C)NC(=O)c3cccc(O)c3NC2=O)cc1`, in the data set with RAW264.7 [1], the Activity result is “Non-Toxic”. For the same compound, the outcome in the data set with RAW264.7 [2] was Active.

Take `COc1ccc([C@@H](C)[C@@H]2NC(=O)[C@@H](C(C)C)NC(=O)CNC(=O)[C@H](CCC(C)C)NC(=O)c3cccc(O)c3NC2=O)cc1`: in the data set with RAW264.7 [1], the Activity result was “Non-Toxic”. Besides, the outcome in the data set on RAW264.7 [2] was Active.

Consider `COc1ccc([C@@H](C)[C@@H]2NC(=O)[C@@H](CC(C)C)NC(=O)CNC(=O)[C@@H](Cc3ccccc3)NC(=O)c3cccc(O)c3NC2=O)cc1`, for which the result with RAW264.7 [3], in the data set with RAW264.7 [5] and with RAW264.7 [2] was Active. Besides, the Activity entry was “Non-Toxic” in the data set on RAW264.7 [1] and “Dose-Dependent Effect” in the data set with RAW264.7 [4].

On to `COc1ccc([C@@H](C)[C@@H]2NC(=O)[C@@H](C(C)C)NC(=O)CNC(=O)[C@H](Cc3ccccc3)NC(=O)c3cccc(O)c3NC2=O)cc1`, for which the Activity result in the data set on RAW264.7 [1] is reported as “Non-Toxic”. For the same compound, the outcome with RAW264.7 [2] was Active.

As to `CC[C@H](C)[C@H]1NC(=O)CNC(=O)[C@H](CCC(C)C)NC(=O)c2cccc(O)c2NC(=O)[C@H]([C@H](C)c2ccc(OC)cc2)NC1=O`, the Activity entry in the data set with RAW264.7 [1] is “Non-Toxic”. The result in the data set with RAW264.7 [2] was Active.

(Values after ChEMBL document CHEMBL5370563, “Molecular Networking-Guided Isolation of Cyclopentapeptides from the Hydrothermal Vent Sediment Derived Fungus Aspergillus pseudoviridinutans TW58-5 and Their Anti-inflammatory Effects” (J Nat Prod, 2023).)
